Data published in US20140088069A1, “NOVEL ANTIBACTERIAL COMBINATION THERAPY” (priority 2011, published 2014).

Assays:
Type in all cases: cell-based, Staphylococcus aureus
CA-MRSA USA300 = test: Checkerboard (FIC) analysis against CA-MRSA USA300; conditions: for drug-drug interaction with cefuroxime (checkerboard secondary screen): in combination with cefuroxime
Procedure: Here a matrix of drug concentrations were tested in combinations at the concentrations shown (μg/mL). Greyscale indicates growth—darker is more growth, lighter is less growth. FIC index is a measure of synergy and is calculated as follows: FIC index=FIC (cefuroxime)+FIC (drug compound).
The combination of ticlopidine and cefuroxime was further tested as above against a variety of S. aureus strains as shown in Table 1 below.
FIC index=FIC (β-lactam)+FTC (ticlopidine). […]

[1] = system: S. aureus (Newman strain); test: Checkerboard (FIC) analysis against S. aureus Newman; conditions: antibiotic in combination with ticlopidine; S. aureus (Newman strain)
MRSA = test: Analogues in combination with cefuroxime against MRSA (FIC index)
Procedure: A series of analogues were synthesized (as shown in Table 5) in which the thienopyridine ring was removed.
These were tested in combination with cefuroxime against MRSA and results are shown below (Table 6).

[2] = antibiotic in combination with ticlopidine, CA-MRSA USA 300, FIC (β-lactam)+FIC (ticlopidine)
[3] = novel analogue in combination with cefuroxime, MRSA (Table 6)
[4] = compound in combination with cefuroxime, MRSA (Table 5)

Compound | FIC index (CA-MRSA USA300; [2]) | FIC index [1] | also measured
CC(=O)Oc1cc2c(s1)CCN(C(C(=O)C1CC1)c1ccccc1F)C2 (racemic) [Prasugrel, (RS)-5-[2-cyclopropyl-1-(2-fluorophenyl)-2-oxoethyl]-4,5,6,7-tetrahydrothieno[3,2-c]pyridin-2-yl acetate] |  |  | MIC (CA-MRSA USA300; Staphylococcus aureus, read-out: MIC thienopyridine): > 128 mg/L; FIC thienopyridine (CA-MRSA USA300; in the presence of cefuroxime, CA-MRSA USA300 (Table 4)): 0.25; FIC index (CA-MRSA USA300; thienopyridine in combination with cefuroxime, CA-MRSA USA300 (Table 4)): ≦0.50; FIC index (CA-MRSA USA300; thienopyridine in combination with cefuroxime, CA-MRSA USA300 (Table 4), listed as prasugrel): ≤ 0.50
CC1(C)S[C@@H]2[C@H](NC(=O)[C@H](N)c3ccccc3)C(=O)N2[C@H]1C(=O)O [Ampicillin] | ≦0.5 | ≦1 | 
CN1[C@@H]2CC[C@H]1C[C@@H](OC(c1ccccc1)c1ccccc1)C2 [Benztropine] |  |  | drug-drug interaction with cefuroxime (checkerboard secondary screen) (CA-MRSA USA300): synergistic interactions
N[C@@H](C(=O)N[C@@H]1C(=O)N2C(C(=O)O)=C(Cl)CS[C@H]12)c1ccccc1 [Cefaclor] | ≦0.5 | ≦1 | 
CC1=C(C(=O)O)N2C(=O)[C@@H](NC(=O)[C@H](N)c3ccc(O)cc3)[C@H]2SC1 [Cefadroxil] | ≦2 |  | 
Cn1nnnc1SCC1=C(C(=O)O)N2C(=O)[C@@H](NC(=O)[C@H](O)c3ccccc3)[C@H]2SC1 [Cefamandole] | ≦0.63 | ≦0.75 | 
CO[C@@]1(NC(=O)CSCC#N)C(=O)N2C(C(=O)O)=C(CSc3nnnn3C)CS[C@@H]21 [Cefmetazole] |  | ≦0.75 | 
CO/N=C(\C(=O)N[C@@H]1C(=O)N2C(C(=O)O)=C(COC(C)=O)CS[C@H]12)c1csc(N)n1 [Cefotaxime] | ≦0.5 |  | 
CO[C@@]1(NC(=O)Cc2cccs2)C(=O)N2C(C(=O)O)=C(COC(N)=O)CS[C@@H]21 [Cefoxitin] | ≦0.5 | ≦0.75 | 
NC(=O)c1cc[n+](CC2=C(C(=O)O)N3C(=O)[C@@H](NC(=O)[C@@H](c4ccccc4)S(=O)(=O)[O-])[C@H]3SC2)cc1 [Cefsulodin] | ≦2 | ≦1 | 
CC(C)(O/N=C(\C(=O)N[C@@H]1C(=O)N2C(C(=O)[O-])=C(C[n+]3ccccc3)CS[C@H]12)c1csc(N)n1)C(=O)O [Ceftazidime] | ≦2 | ≦1 | 
CO/N=C(\C(=O)N[C@@H]1C(=O)N2C(C(=O)O)=CCS[C@H]12)c1csc(N)n1 [Ceftizoxime] | ≦0.5 |  | 
CO/N=C(\C(=O)N[C@@H]1C(=O)N2C(C(=O)O)=C(COC(C)=O)CS[C@H]12)c1csc(N)n1 [Ceftoxamine] |  | ≦1 | 
CC1=C(C(=O)O)N2C(=O)[C@@H](NC(=O)[C@H](N)c3ccccc3)[C@H]2SC1 [Cephalexin] | ≦0.75 | ≦1 | 
CC(=O)OCC1=C(C(=O)O)N2C(=O)[C@@H](NC(=O)CCC[C@@H](N)C(=O)O)[C@H]2SC1 [Cephalosporin C] |  | ≦0.75 | 
CC(=O)OCC1=C(C(=O)O)N2C(=O)[C@@H](NC(=O)Cc3cccs3)[C@H]2SC1 [Cephalothin] | ≦0.5 |  | 
CC1=C(C(=O)O)N2C(=O)[C@@H](NC(=O)[C@H](N)C3=CCC=CC3)[C@H]2SC1 [Cephradine] | ≦2 |  | 
O=C(O)c1cn(C2CC2)c2cc(N3CCNCC3)c(F)cc2c1=O [Ciprofloxacin] |  | ≦2 | 
CC[C@H]1OC(=O)[C@H](C)[C@@H](O[C@H]2C[C@@](C)(OC)[C@@H](O)[C@H](C)O2)[C@H](C)[C@@H](O[C@@H]2O[C@H](C)C[C@H](N(C)C)[C@H]2O)[C@](C)(OC)C[C@@H](C)C(=O)[C@H](C)[C@@H](O)[C@]1(C)O [Clarithromycin] |  | ≦2 | 
Cc1onc(-c2ccccc2Cl)c1C(=O)N[C@@H]1C(=O)N2[C@@H]1SC(C)(C)[C@@H]2C(=O)O [Cloxacillin] | ≦0.5 |  | 
Clc1ccc2c(c1)CCN(Cc1ccccc1Cl)C2 [Compound 1-novel, 6-Chloro-2-(2-chloro-benzyl)-1,2,3,4-tetrahydro-isoquinoline] |  |  | FIC index (MRSA; [3]): ≦2
c1cc2c(s1)CCNC2 [Compound 2, 4,5,6,7-Tetrahydro-thieno[3,2-c]pyridine] |  |  | FIC index (MRSA; [4]): ≦2
Oc1ccc2c(c1)CN(Cc1ccccc1Cl)CC2 [Compound 2-novel, 2-(2-Chloro-benzyl)-1,2,3,4-tetrahydro-isoquinolin-7-ol] |  |  | FIC index (MRSA; [3]): ≦2
Clc1ccccc1CN1CCc2ccccc2C1 [Compound 3, 2-(2-Chloro-benzyl)-1,2,3,4-tetrahydro-isoquinoline] |  |  | FIC index (MRSA; [4]): ≦0.125
c1ccc2c(c1)CCN(Cc1ccc3ccccc3c1)C2 [Compound 3-novel, 2-Naphthalen-2-ylmethyl-1,2,3,4-tetrahydro-isoquinoline] |  |  | FIC index (MRSA; [3]): ≦0.312
Clc1cccc(CN2CCc3ccccc3C2)c1 [Compound 4, 2-(3-Chloro-benzyl)-1,2,3,4-tetrahydro-isoquinoline] |  |  | FIC index (MRSA; [4]): ≦2
O=C(O)C(c1ccccc1Cl)N1CCc2ccccc2C1 (stereo not shown) [Compound 4-novel, (2-Chloro-phenyl)-(3,4-dihydro-1H-isoquinolin-2-yl)-acetic acid] |  |  | FIC index (MRSA; [3]): ≦2

Compound | FIC index (CA-MRSA USA300; [2]) | FIC index [1] | also measured
Clc1ccc(CN2CCc3ccccc3C2)cc1 [Compound 5, 2-(4-Chloro-benzyl)-1,2,3,4-tetrahydro-isoquinoline] |  |  | FIC index (MRSA; [4]): ≦2
c1ccc(CN2CCc3ccccc3C2)cc1 [Compound 6, 2-Benzyl-1,2,3,4-tetrahydro-isoquinoline] |  |  | FIC index (MRSA; [4]): ≦0.625
c1ccc2c(c1)CCN(Cc1ccncc1)C2 [Compound 7, 2-Pyridin-4-ylmethyl-1,2,3,4-tetrahydro-isoquinoline] |  |  | FIC index (MRSA; [4]): ≦2
Clc1ccccc1C[n+]1ccc2ccccc2c1 [Compound 8, 2-(2-Chloro-benzyl)-isoquinolinium] |  |  | FIC index (MRSA; [4]): ≦2
Clc1ccccc1CN1CCCc2ccccc21 [Compound 9, 1-(2-Chloro-benzyl)-1,2,3,4-tetrahydro-quinoline] |  |  | FIC index (MRSA; [4]): ≦0.187
CCN1CCN(Cc2ccccc2Cl)CC1 [Compound 10, 1-(2-Chloro-benzyl)-4-ethyl-piperazine] |  |  | FIC index (MRSA; [4]): ≦2
Clc1ccccc1CN1CCCC1 [Compound 11, 1-(2-Chloro-benzyl)-pyrrolidine] |  |  | FIC index (MRSA; [4]): ≦2
Clc1ccccc1CN1CCCCC1 [Compound 12, 1-(2-Chloro-benzyl)-piperidine] |  |  | FIC index (MRSA; [4]): ≦2
Clc1ccccc1CN1CCC2CCCCC2C1 (stereo not shown) [Compound 13, 2-(2-Chloro-benzyl)-decahydro-isoquinoline] |  |  | FIC index (MRSA; [4]): ≦2
N[C@@H]1CONC1=O [D-cycloserine] |  | ≦2 | 
CCCCCCCCCC(=O)N[C@@H](Cc1c[nH]c2ccccc12)C(=O)N[C@H](CC(N)=O)C(=O)N[C@@H](CC(=O)O)C(=O)N[C@@H]1C(=O)NCC(=O)N[C@@H](CCCN)C(=O)N[C@@H](CC(=O)O)C(=O)N[C@H](C)C(=O)N[C@@H](CC(=O)O)C(=O)NCC(=O)N[C@H](CO)C(=O)N[C@@H]([C@H](C)CC(=O)O)C(=O)N[C@@H](CC(=O)c2ccccc2N)C(=O)O[C@@H]1C [Daptomycin] |  | ≦2 | 
CC[C@H]1OC(=O)[C@H](C)[C@@H](O[C@H]2C[C@@](C)(OC)[C@@H](O)[C@H](C)O2)[C@H](C)[C@@H](O[C@@H]2O[C@H](C)C[C@H](N(C)C)[C@H]2O)[C@](C)(O)C[C@@H](C)C(=O)[C@H](C)[C@@H](O)[C@]1(C)O [Erythromycin] |  | ≦2 | 
C[C@@H]1O[C@@H]1P(=O)(O)O [Fosfomycin] |  | ≦0.5 | 
C[C@H]1COc2c(N3CCN(C)CC3)c(F)cc3c(=O)c(C(=O)O)cn1c23 [Levofloxacin] |  | ≦2 | 
C[C@@H](O)[C@H]1C(=O)N2C(C(=O)O)=C(S[C@@H]3CN[C@H](C(=O)N(C)C)C3)[C@H](C)[C@H]12 [Meropenem] | ≦0.75 |  | 
COc1cccc(OC)c1C(=O)N[C@@H]1C(=O)N2[C@@H]1SC(C)(C)[C@@H]2C(=O)O [Methicillin] | ≦0.63 | ≦1 | 
CCOc1ccc2ccccc2c1C(=O)N[C@@H]1C(=O)N2[C@@H]1SC(C)(C)[C@@H]2C(=O)O [Nafcillin] | ≦0.5 | ≦1 | 
Cc1onc(-c2ccccc2)c1C(=O)N[C@@H]1C(=O)N2[C@@H]1SC(C)(C)[C@@H]2C(=O)O [Oxacillin] | ≦0.5 | ≦0.63 | 
CC1(C)S[C@@H]2[C@H](NC(=O)Cc3ccccc3)C(=O)N2[C@H]1C(=O)O [Penicillin G] | ≦0.5 |  | 
CCN1CCN(C(=O)N[C@@H](C(=O)N[C@@H]2C(=O)N3[C@@H]2SC(C)(C)[C@@H]3C(=O)O)c2ccccc2)C(=O)C1=O [Piperacillin] | ≦0.5 | ≦0.63 | 
NC[C@H]1O[C@H](O[C@H]2[C@H](O)[C@@H](O[C@H]3O[C@H](CO)[C@@H](O)[C@H](N)[C@H]3O)[C@H](N)C[C@@H]2N)[C@H](N)C[C@@H]1O [Tobramycin] |  | ≦2 | 
COc1cc(Cc2cnc(N)nc2N)cc(OC)c1OC [Trimethoprim] |  | ≦2 | 
CN[C@H](CC(C)C)C(=O)N[C@H]1C(=O)N[C@@H](CC(N)=O)C(=O)N[C@H]2C(=O)N[C@H]3C(=O)N[C@H](C(=O)N[C@H](C(=O)O)c4cc(O)cc(O)c4-c4cc3ccc4O)[C@H](O)c3ccc(c(Cl)c3)Oc3cc2cc(c3O[C@@H]2O[C@H](CO)[C@@H](O)[C@H](O)[C@H]2O[C@H]2C[C@](C)(N)[C@H](O)[C@H](C)O2)Oc2ccc(cc2Cl)[C@H]1O [Vancomycin] |  | ≦2 | 
CN(C)CCC(c1ccc(Cl)cc1)c1ccccn1 (stereo not shown) [chlorpheniramine] |  |  | drug-drug interaction with cefuroxime (checkerboard secondary screen) (CA-MRSA USA300): synergistic interactions
Polymyxin |  | ≦0.5 | 
Tunicamycin |  | ≦0.75 | 
